Measured values taken from patent US8334235B2, “Thiadiazolyloxyphenylamidines and use thereof as fungicides” (Bayer Cropscience AG, priority 2008, dated 2012).

Tests used:
[1] = test system: Puccinia triticina; assay: Puccinia triticina test (wheat)/curative; type: in vivo; details: 192 h, 500 ppm active substance, curative, evaluation 8 days after inoculation, read-out: degree of effectiveness
Description: (§1) • Solvent: 50 parts by weight of N,N-dimethylacetamide • Emulsifier: 1 part by weight of alkylaryl polyglycol ether (polyoxyethylene (16) tristearylphenyl ether)
(§2) To prepare a suitable active substance composition, 1 part by weight of active substance is mixed with the given amounts of solvent and emulsifier and the concentrate is diluted to the desired concentration using water.
For the testing of curative effectiveness, young plants are sprayed with a suspension of spores of Puccinia triticina. The plants remain in an incubation chamber at 20° C. and 100% relative humidity for 48 hours and are then sprayed with the active substance composition in the application rate given. The plants are placed in a greenhouse at a temperature of approximately 20° C. and a relative humidity of approximately 80%.
(§3) Evaluation is carried out 8 days after the inoculation. In this connection, 0% means a degree of effectiveness corresponding to that of the control, while a degree of effectiveness of 100% means that no infestation is observed.

[2] = test system: Sphaerotheca fuliginea; assay: Sphaerotheca test (cucumber)/protective; type: in vivo; details: Podosphaera fuliginea, 168 h, 500 ppm active substance, protective, evaluation 7 days after inoculation, read-out: degree of effectiveness
Description: • Solvent: 49 parts by weight of N,N-dimethylformamide • Emulsifier: 1 part by weight of alkylaryl polyglycol ether (polyoxyethylene (16) tristearylphenyl ether) To prepare a suitable active substance composition, 1 part by weight of active substance is mixed with the given amounts of solvents and emulsifier and the concentrate is diluted to the desired concentration using water. For the testing of protective effectiveness, young cucumber plants are sprayed with the active substance composition in the application rate given. One day after treatment, the plants are inoculated with a suspension of spores of Sphaerotheca fuliginea. The plants are then placed in a greenhouse at 70% relative humidity and a temperature of 23° C. Evaluation is carried out 7 days after the inoculation. In this connection, 0% means a degree of effectiveness corresponding to that of the control, while a degree of effectiveness of 100% means that no infestation is observed.

[3] = log P (pH 2.3); type: physicochemical
[4] = test system: Puccinia triticina; assay: Puccinia triticina test (wheat)/protective; type: in vivo; details: 192 h, 500 ppm active substance, protective, evaluation 8 days after inoculation, read-out: degree of effectiveness
Description: as §1, §2
For the testing of protective effectiveness, young plants are sprayed with the active substance composition in the application rate given. After the spray coating has been dried on, the plants are sprayed with a suspension of spores of Puccinia triticina. The plants remain in an incubation chamber at 20° C. and 100% relative humidity for 48 hours. The plants are placed in a greenhouse at a temperature of approximately 20° C. and a relative humidity of approximately 80%.
as §3

SMILES | pest or weed control at 500 ppm [1] | pest or weed control at 500 ppm [2] | logP [3] | pest or weed control at 500 ppm [4]
CCN(C)C=Nc1cc(C)c(Oc2nc(C3(Cl)CC3)ns2)cc1Cl [Compound 3, N′-(2-chloro-4-{[3-(1-chlorocyclopropyl)-1,2,4-thiadiazol-5-yl]oxy}-5-methylphenyl)-N-ethyl-N-methylimidoformamide] | ≥ 70% | ≥ 70% | 1.62 | ≥ 70%
Cc1cc(/N=C\N2CCCCC2)c(Cl)cc1Oc1nc(CCc2ccc(Cl)cc2)ns1 [Compound 10, 2-chloro-4-({3-[2-(4-chlorophenyl)ethyl]-1,2,4-thiadiazol-5-yl}oxy)-5-methyl-N-[(Z)-piperidin-1-ylmethylidene]aniline] | – | – | 2.64 | –
